Experimental data as given in patent US20090028795A1, “NOD1 as an Anti-Tumor Agent” (priority 2005, published 2009).
Non-standard residues stand in square brackets, D forms with d. No end group written: not given here. DAP = diaminopimelic acid

Legend:
Format in all cases: cell-based, human
MCF-7 C20/Nod1 cells = assay: Propidium iodide exclusion apoptosis assay, estrogen/tamoxifen studies; conditions: γTriDAP-induced, C20/Nod1 cells
Source text: FIG. 12A-C illustrates that estrogen increases γTriDAP-induced apoptosis and tamoxifen inhibits γTriDAP-induced apoptosis in various MCF-7 tumor cell lines. FIG. 12A graphically illustrates the percent apoptosis in MCF-7 Blasto, MCF-7 C20 and MCF-7 C20/Nod1 cells cultured in increasing amounts or estrogen and either cycloheximide (CHX) or CHX plus γTriDAP (γTri). FIG. 12B graphically illustrates the percent apoptosis in MCF-7 Blasto, MCF-7 C20 and MCF-7 C20/Nod1 cells cultured in increasing amounts of tamoxifen and either cycloheximide (CHX) or CHX plus γTriDAP (γTri). For the estrogen studies, MCF-7 cells were cultured in charcoal-treated medium and stimulated with γTriDAP/CHX in the presence of increasing concentrations of estrogen (E2) and cell viability was measured by propidium iodide (PI) exclusion. For the tamoxifen studies, cells were treated with tamoxifen prior to addition of γTriDAP/CHX and cell viability measured by PI exclusion. […] Total protein extracts from MCF-7 Blasto, MCF-7 C20 and MCF-7 C20/Nod1 cells and from cells isolated from tumors were analyzed by immunoblotting using antibody against estrogen receptor (ERα), and ERK2 as loading control.
(§1) Cell viability assays. Propidium iodide exclusion assay: Cells were stimulated as indicated for 2 days. Subsequently, cells were harvested, washed twice in FACS buffer (PBS containing 1% FCS and 0.1% NaN3) and resuspended in propidium iodide (PI)-containing FACS buffer (4 ug/ml). The extent of cell death was analyzed with a FACSCalibur flow cytometer (Becton Dickinson, Mountain View, Calif.). DAPI staining: MCF-7 cells were plated in chamber slides, and stimulated for 2 days. Cells were washed with PBS and apoptotic nuclei were stained with 1 μg/ml DAPI (Sigma Chemical Co., St. Louis, Mo.). Cells were fixed in 4% paraformaldehyde and examined by fluorescence microscopy.
To determine whether the presence of estrogens modulates Nod1-induced apoptotic pathway, cells were cultured in medium containing charcoal-treated serum.

JNK = JNK phosphorylation in MCF-7 RIP2 transfectants
Source text: FIG. 7A-C illustrate that both wild-type RIP2 and a kinase-deficient (KD) mutant of RIP2 are functional in the NOD1 apoptosis pathway. However, RIP2 lacking the CARD domain acts as a dominant negative inhibitor of NOD1 signaling. FIG. 7A graphically illustrates the percentage of cells that were apoptotic in populations of wild type RIP2, RIP2 KD and RIP2 ΔCARD cells. MCF-7 cells were stably transfected with wild type Myc-RIP2, Myc-RIP2 KD, and Myc-RIP2 ΔCARD and were left untreated or were treated with γTriDAP in the presence or absence of CHX (3 ug/ml) for 48 h. Cells were incubated with PI and apoptotic cell death was measured by flow cytometry. […] FIG. 7C illustrates γTriDAP-induction of phosphorylation of JNK in RIP2 wild types, MCF-7 RIP2 KD, and RIP2 ΔCARD cells.
The effect of RIP2 expression on γTriDAP-induced JNK phosphorylation was also examined (FIG. 7C).

CaCo2 = assay: Apoptosis (PI staining), CaCo2 cells stably expressing Nod1; conditions: CaCo2, Nod1 stably expressed; treatment as labelled
Protocol: as §1
(§2) To determine if Nod1-dependent apoptosis occurs in other human cell lines, a series of epithelial cell lines were examined where Nod1 was stably expressed to enhance sensitivity to activation of the Nod1 pathway. Cells were treated with TNFα (T) and γTriDAP (γ) in the presence or absence of CHX (C) and monitored for viability by PI staining as a measure of apoptosis (Table 1).

SK-BR3 = assay: Apoptosis (PI staining), SK-BR3 cells
Protocol: as §1, §2

293 = assay: IL-8 production, 293 cells stably expressing Nod1; conditions: 293, Nod1 stably expressed; treatment as labelled
A431 = assay: Apoptosis (PI staining), A431 cells stably expressing Nod1; conditions: A431, Nod1 stably expressed; treatment as labelled
Protocol: as §1, §2

HT29 = assay: Apoptosis (PI staining), HT29 cells stably expressing Nod1; conditions: HT29, Nod1 stably expressed; treatment as labelled
Protocol: as §1, §2

[1] = system: MCF-7 C20 cells with Nod2; assay: Apoptosis in MCF-7 C20 cells complemented with Nod2; conditions: MCF-7 C20 complemented with Nod2 (data not shown)
MCF-7 C20 cells = assay: Propidium iodide exclusion cell death assay, Nod1-deficient MCF-7 C20 cells; conditions: MCF-7C20 (without Nod1 expression), γTriDAP plus cycloheximide
Protocol: as §1
To further investigate the role of Nod1 in apoptosis, a variety of cell types were incubated with the Nod1 ligand, […] (γTriDAP), which specifically activates Nod1. The cell types tested included the parental MCF-7 cell line, the Nod1-deficient MCF-7C20 clone, and a cell line engineered to contain an additional human Nod1 allele (MCF-7Nod1) so that Nod1 was over-expressed. […] Cells were treated with γTriDAP in the presence or absence of cycloheximide (CHX) and cell death was then determined by propidium iodide staining and flow cytometry.

**Q.** “D-Ala-L-Glu-Diaminopimelic acid ([dA]-Glu-[DAP]; also: Glu joined to DAP through its gamma carboxyl (γTriDAP))” was tested. Which apoptosis (MCF-7 C20/Nod1 cells; with steroids) did it give?
**A.** 80%

**Q.** What about the apoptosis (MCF-7 C20/Nod1 cells; without steroids (charcoal-treated serum)) of the same substance?
**A.** 10%

**Q.** What about the “phosphorylation of JNK” value (JNK; MCF-7 expressing wild type RIP2 or RIP2 KD, in the presence of cycloheximide, 2 h) of the same substance?
**A.** induced phosphorylation of JNK

**Q.** And the “phosphorylation of JNK” value (JNK; RIP2ΔCARD cells, with cycloheximide)?
**A.** no such effect

**Q.** And the apoptosis (CaCo2)?
**A.** poorly responsive

**Q.** And the apoptosis (SK-BR3; SK-BR3, Nod1 stably expressed, treatment as labelled)?
**A.** only undergo apoptosis when γTriDAP was added together with TNFα and CHX

**Q.** And the “apoptosis of SKBR3 cells” value (SK-BR3; plus TNFα and cycloheximide (FIG. 9B))?
**A.** highest

**Q.** And the “IL−8 Production” value 293?
**A.** do release IL-8

**Q.** What about the apoptosis (A431) of the same substance?
**A.** only undergo apoptosis when γTriDAP was added together with TNFα and CHX

**Q.** What about the apoptosis (HT29) of the same substance?
**A.** poorly responsive

**Q.** What about the apoptosis [1] of the same substance?
**A.** did not result in apoptosis

**Q.** What about the apoptosis (MCF-7 C20 cells) of the same substance?
**A.** totally resistant
